Assays:
THR alpha-LBD = target: T1, THR alpha-LBD (Homo sapiens, UniProt P10827); experiment: THR-α Coactivator Peptide Recruitment Assay (LanthaScreen TR-FRET); format: biochemical; conditions: TR-FRET coactivator recruitment, THR alpha-LBD 0.25 nM; for EC50: read-out: THRα EC50
T1 construct: except that THR alpha-LBD of a final concentration 0.25 nM was used; purchased Invitrogen PV4687
Procedure, shortened: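 TR-FRET coactivator recruitment with THR alpha-LBD at 0.25 nM final, Fluorescein-SRC2-2 peptide 0.1 nM and Tb-labeled anti-GST antibody 2 nM; 2 h incubation at room temperature. 520/495 nm emission ratio fitted to a four-parameter sigmoidal curve to give EC50.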

THR beta-LBD = target: T2, THR beta-LBD (Homo sapiens, UniProt P10828); experiment: THR-β Coactivator Peptide Recruitment Assay (LanthaScreen TR-FRET); format: biochemical; conditions: TR-FRET coactivator recruitment, THR beta-LBD 0.5 nM; for EC50: read-out: THRβ EC50
T2 construct: THR beta-LBD (the final concentration is 0.5 nM) was added to the 384-well assay plate; purchased Invitrogen PV4686
T2 sequence (P10828 217-461 limits assumed): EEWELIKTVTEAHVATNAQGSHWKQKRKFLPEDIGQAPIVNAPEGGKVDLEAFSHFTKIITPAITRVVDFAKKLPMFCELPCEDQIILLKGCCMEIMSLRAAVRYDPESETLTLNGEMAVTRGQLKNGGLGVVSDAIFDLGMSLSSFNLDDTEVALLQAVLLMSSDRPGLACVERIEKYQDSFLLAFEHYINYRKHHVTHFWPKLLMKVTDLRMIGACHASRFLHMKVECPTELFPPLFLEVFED
Procedure, shortened: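 GST-tagged THR beta-LBD (0.5 nM) with test compound recruits fluorescein-SRC2-2 coactivator peptide (0.1 nM), detected with Tb-anti-GST antibody (2 nM).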

T1 sequence (P10827 163-410 isoform P10827-2 limits assumed, other chains not shown): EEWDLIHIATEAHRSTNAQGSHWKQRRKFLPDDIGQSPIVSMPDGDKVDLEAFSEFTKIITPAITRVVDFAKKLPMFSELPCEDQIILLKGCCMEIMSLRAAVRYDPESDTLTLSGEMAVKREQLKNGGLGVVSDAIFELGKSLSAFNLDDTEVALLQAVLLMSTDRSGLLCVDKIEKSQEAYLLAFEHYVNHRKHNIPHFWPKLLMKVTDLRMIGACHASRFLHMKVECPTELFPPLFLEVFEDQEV

| SMILES | THRα Emax (THR alpha-LBD) | EC50 (THR alpha-LBD) | THRβ Emax (THR beta-LBD) | EC50 (THR beta-LBD) |
| --- | --- | --- | --- | --- |
| CCS(=O)(=O)N[C@H]1CCN(S(=O)(=O)c2cc(Oc3c(Cl)cc(-n4nc(C(F)F)c(=O)[nH]c4=O)cc3Cl)ccc2O)C1 [Compound 55, (S)-N-(1-((5-(2,6-dichloro-4-(6-(difluoromethyl)-3,5-dioxo-4,5-dihydro-1,2,4-triazin-2(3H)-yl)phenoxy)-2-hydroxyphenyl)sulfonyl)pyrrolidin-3-yl)ethanesulfonamide] | B (40~85) | 2 to 200 nM | B (75~90) | < 2 nM |
| O=C(N[C@H]1CCN(S(=O)(=O)c2cc(Oc3c(Cl)cc(-n4nc(C(F)F)c(=O)[nH]c4=O)cc3Cl)ccc2O)C1)C1CC1 [Compound 56, (S)-N-(1-((5-(2,6-dichloro-4-(6-(difluoromethyl)-3,5-dioxo-4,5-dihydro-1,2,4-triazin-2(3H)-yl)phenoxy)-2-hydroxyphenyl)sulfonyl)pyrrolidin-3-yl)cyclopropanecarboxamide] | B (40~85) | 2 to 200 nM | C (<75) | < 2 nM |
| O=C(CNS(=O)(=O)c1cc(Oc2c(Cl)cc(-n3nc(C(F)F)c(=O)[nH]c3=O)cc2Cl)ccc1O)N1CCC1 [Compound 63, N-[2-(azetidin-1-yl)-2-oxo-ethyl]-5-[2,6-dichloro-4-[6-(difluoromethyl)-3,5-dioxo-1,2,4-triazin-2-yl]phenoxy]-2-hydroxy-benzenesulfonamide] | B (40~85) | > 1000 nM | B (75~90) | 20 to 100 nM |
| O=c1[nH]c(=O)n(-c2cc(Cl)c(Oc3cnc(O)c(S(=O)(=O)NC4CCC4)c3)c(Cl)c2)nc1C(F)F [Compound 64, N-cyclobutyl-5-[2,6-dichloro-4-[6-(difluoromethyl)-3,5-dioxo-1,2,4-triazin-2-yl]phenoxy]-2-hydroxy-pyridine-3-sulfonamide] | C (<40) | > 1000 nM | B (75~90) | > 100 nM |
| COCCNS(=O)(=O)c1cc(Oc2c(Cl)cc(-n3nc(C(F)F)c(=O)[nH]c3=O)cc2Cl)ccc1O [Compound 65, 5-[2,6-dichloro-4-[6-(difluoromethyl)-3,5-dioxo-1,2,4-triazin-2-yl]phenoxy]-2-hydroxy-N-(2-methoxyethyl) benzenesulfonamide] | B (40~85) | 2 to 200 nM | B (75~90) | < 2 nM |
| NS(=O)(=O)c1cc(Oc2c(Cl)cc(-n3nc(C(F)F)c(=O)[nH]c3=O)cc2Cl)ccc1O [Compound 68, 5-[2,6-dichloro-4-[6-(difluoromethyl)-3,5-dioxo-1,2,4-triazin-2-yl]phenoxy]-2-hydroxy-benzene sulfonamide] | A (85~110) | 2 to 200 nM | B (75~90) | 2 to 20 nM |
| O=c1[nH]c(=O)n(-c2cc(Cl)c(Oc3ccc(O)c(S(=O)(=O)NC4(CO)CC4)c3)c(Cl)c2)nc1C(F)F [Compound 70, 5-(2,6-dichloro-4-(6-(difluoromethyl)-3,5-dioxo-4,5-dihydro-1,2,4-triazin-2(3H)-yl)phenoxy)-2-hydroxy-N-(1-(hydroxymethyl)cyclopropyl)benzenesulfonamide] | B (40~85) | 2 to 200 nM | B (75~90) | 2 to 20 nM |
| O=C(NC1CC1)C1(NS(=O)(=O)c2cc(Oc3c(Cl)cc(-n4nc(C(F)F)c(=O)[nH]c4=O)cc3Cl)ccc2O)CC1 [Compound 71, N-cyclopropyl-1-[[5-[2,6-dichloro-4-[6-(difluoromethyl)-3,5-dioxo-1,2,4-triazin-2-yl]phenoxy]-2-hydroxy-phenyl]sulfonylamino] cyclopropane carboxamide] | B (40~85) | 2 to 200 nM | A (90~110) | 2 to 20 nM |
| CS(=O)(=O)NC1CN(S(=O)(=O)c2cc(Oc3c(Cl)cc(-n4nc(C(F)F)c(=O)[nH]c4=O)cc3Cl)ccc2O)C1 [Compound 73, N-[l-[5-[2,6-dichloro-4-[6-(difluoromethyl)-3,5-dioxo-1,2,4-triazin-2-yl]phenoxy]-2-hydroxy-phenyl]sulfonylazetidin-3-yl] methane sulfonamide] | B (40~85) | 2 to 200 nM | C (<75) | 2 to 20 nM |

Other lines, results leading:

| THRα Emax (THR alpha-LBD) | EC50 (THR alpha-LBD) | THRβ Emax (THR beta-LBD) | EC50 (THR beta-LBD) | SMILES |
| --- | --- | --- | --- | --- |
| B (40~85) | 200 to 1000 nM | C (<75) | 20 to 100 nM | CS(=O)(=O)N1CC(NS(=O)(=O)c2cc(Oc3c(Cl)cc(-n4nc(C(F)F)c(=O)[nH]c4=O)cc3Cl)ccc2O)C1 [Compound 54, 5-(2,6-dichloro-4-(6-(difluoromethyl)-3,5-dioxo-4,5-dihydro-1,2,4-triazin-2(3H)-yl)phenoxy)-2-hydroxy-N-(1-(methylsulfonyl)azetidin-3-yl)benzenesulfonamide] |
| C (<40) | > 1000 nM | C (<75) | 20 to 100 nM | CNC(=O)N1CC(NS(=O)(=O)c2cc(Oc3c(Cl)cc(-n4nc(C(F)F)c(=O)[nH]c4=O)cc3Cl)ccc2O)C1 [Compound 57, 3-((5-(2,6-dichloro-4-(6-(difluoromethyl)-3,5-dioxo-4,5-dihydro-1,2,4-triazin-2(3H)-yl)phenoxy)-2-hydroxyphenyl)sulfonamido)-N-methylazetidine-1-carboxamide] |
| A (85~110) | 2 to 200 nM | B (75~90) | < 2 nM | NC(=O)CNS(=O)(=O)c1cc(Oc2c(Cl)cc(-n3nc(C(F)F)c(=O)[nH]c3=O)cc2Cl)ccc1O [Compound 58, 2-((5-(2,6-dichloro-4-(6-(difluoromethyl)-3,5-dioxo-4,5-dihydro-1,2,4-triazin-2 (3H)-yl)phenoxy)-2-hydroxyphenyl)sulfonamido)acetamide] |
| B (40~85) | 200 to 1000 nM | A (90~110) | 2 to 20 nM | O=C(CNS(=O)(=O)c1cc(Oc2c(Cl)cc(-n3nc(C(F)F)c(=O)[nH]c3=O)cc2Cl)ccc1O)NC1CC1 [Compound 59, N-cyclopropyl-2-((5-(2,6-dichloro-4-(6-(difluoromethyl)-3,5-dioxo-4,5-dihydro-1,2,4-triazin-2(3H)-yl)phenoxy)-2-hydroxyphenyl)sulfonamido)acetamide] |
| B (40~85) | 2 to 200 nM | B (75~90) | 2 to 20 nM | CNC(=O)CNS(=O)(=O)c1cc(Oc2c(Cl)cc(-n3nc(C(F)F)c(=O)[nH]c3=O)cc2Cl)ccc1O [Compound 60, 2-((5-(2,6-dichloro-4-(6-(difluoromethyl)-3,5-dioxo-4,5-dihydro-1,2,4-triazin-2(3H)-yl)phenoxy)-2-hydroxyphenyl)sulfonamido)-N-methylacetamide] |
| B (40~85) | > 1000 nM | B (75~90) | 2 to 20 nM | CNC(=O)[C@H]1C[C@H](NS(=O)(=O)c2cc(Oc3c(Cl)cc(-n4nc(C(F)F)c(=O)[nH]c4=O)cc3Cl)ccc2O)C1 [Compound 61, (1r,3r)-3-((5-(2,6-dichloro-4-(6-(difluoromethyl)-3,5-dioxo-4,5-dihydro-1,2,4-triazin-2(3H)-yl)phenoxy)-2-hydroxyphenyl)sulfonamido)-N-methylcyclobutane-1-carboxamide] |
| B (40~85) | 200 to 1000 nM | B (75~90) | 2 to 20 nM | O=C(CNS(=O)(=O)c1cc(Oc2c(Cl)cc(-n3nc(C(F)F)c(=O)[nH]c3=O)cc2Cl)ccc1O)NC1CCC1 [Compound 62, N-cyclobutyl-2-((5-(2,6-dichloro-4-(6-(difluoromethyl)-3,5-dioxo-4,5-dihydro-1,2,4-triazin-2(3H)-yl)phenoxy)-2-hydroxyphenyl)sulfonamido)acetamide] |
| B (40~85) | 2 to 200 nM | C (<75) | 2 to 20 nM | O=c1[nH]c(=O)n(-c2cc(Cl)c(Oc3ccc(O)c(S(=O)(=O)N[C@@H]4CC[C@H](O)C4)c3)c(Cl)c2)nc1C(F)F [Compound 66, 5-(2,6-dichloro-4-(6-(difluoromethyl)-3,5-dioxo-4,5-dihydro-1,2,4-triazin-2(3H)-yl)phenoxy)-2-hydroxy-N-((1R,3S)-3-hydroxycyclopentyl)benzenesulfonamide] |
| B (40~85) | 2 to 200 nM | B (75~90) | 2 to 20 nM | O=c1[nH]c(=O)n(-c2cc(Cl)c(Oc3ccc(O)c(S(=O)(=O)N[C@H]4CC[C@@H](O)C4)c3)c(Cl)c2)nc1C(F)F [Compound 67, 5-(2,6-dichloro-4-(6-(difluoromethyl)-3,5-dioxo-4,5-dihydro-1,2,4-triazin-2(3H)-yl)phenoxy)-2-hydroxy-N-((1S,3R)-3-hydroxycyclopentyl)benzenesulfonamide] |
| A (85~110) | 2 to 200 nM | A (90~110) | < 2 nM | N#C[C@H]1C[C@@H](NS(=O)(=O)c2cc(Oc3c(Cl)cc(-n4nc(C(F)F)c(=O)[nH]c4=O)cc3Cl)ccc2O)C1 [Compound 69, N-((1s,3s)-3-cyanocyclobutyl)-5-(2,6-dichloro-4-(6-(difluoromethyl)-3,5-dioxo-4,5-dihydro-1,2,4-triazin-2(3H)-yl)phenoxy)-2-hydroxybenzenesulfonamide] |

From patent publication US12291518B2, “Thyroid hormone receptor agonists and use thereof” (Eccogene Inc., priority 2020, dated 2025)
